Reference: paper PMC7710018, “Restoration of motor learning in a mouse model of Rett syndrome following long-term treatment with a novel small-molecule activator of TrkB” (Disease Models & Mechanisms, 2020)
Read-outs that look alike come from different tables or passages of the source.

What was measured:
[1] = system: rat model of traumatic brain injury; parameters: method as in Massa et al., 2010; conditions: ref Massa et al., 2010; cited from earlier work
Het mice = system: Het mice; parameters: method as in Li et al., 2017; conditions: long-term treatment of Het mice; ref Li et al., 2017; cited from earlier work
D2S (h) = target: T1, D2S (h) (Homo sapiens, UniProt P14416); assay: Cerep ExpresSProfile radioligand binding; conditions: 10 micromolar; antagonist radioligand; read-out: % Inhibition of Control Specific Binding 2nd
T1 construct: purchased Cerep (ExpresSProfile)
T1 sequence (P14416 1-414 isoform P14416-2): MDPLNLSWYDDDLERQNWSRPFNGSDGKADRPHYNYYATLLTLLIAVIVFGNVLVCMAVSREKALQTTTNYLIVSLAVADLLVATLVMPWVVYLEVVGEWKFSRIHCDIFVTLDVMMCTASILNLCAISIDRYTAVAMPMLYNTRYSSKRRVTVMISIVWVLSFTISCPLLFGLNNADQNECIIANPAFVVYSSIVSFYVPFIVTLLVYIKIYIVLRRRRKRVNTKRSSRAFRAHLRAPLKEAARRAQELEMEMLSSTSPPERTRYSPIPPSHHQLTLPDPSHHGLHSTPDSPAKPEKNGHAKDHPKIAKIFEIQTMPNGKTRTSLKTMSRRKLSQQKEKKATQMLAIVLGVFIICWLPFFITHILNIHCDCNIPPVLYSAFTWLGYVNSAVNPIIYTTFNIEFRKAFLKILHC
Protocol: (§1) To evaluate the relative binding specificity of LM22A-4 ([Massa et al., 2010]) and PTX-BD4-3, binding to a broad range of 55 pharmacologically relevant receptors, including numerous neurotransmitter and G-protein coupled receptors was assessed using standard radioligand competition binding assays (ExpressSProfile) performed by Cerep, Inc. (Seattle, WA, USA). In addition, ADME-Tox analysis was performed by Cerep, Inc. All experimental conditions are described on the Cerep website (www.cerep.fr).
(§2) Ligand % Inhibition of Control Specific […]
(§3) 48 Ca2+ channel (L, verapamil site) 0 ‐1.3 ‐0.7
(§4) (phenylalkylamine) (antagonist radioligand) […]
(§5) 51 Na+ channel (site 2) (antagonist radioligand) 0.6 11.7 6.1
(§6) 52 Cl‐ channel (GABA‐gated) (antagonist 2.7 ‐5.3 ‐1.3 […]
(§7) Table S1. In vitro binding assays. An ExpresSProfile screen of PTX-BD4-3 binding to a panel of pharmacologically relevant receptors was conducted by Cerep, Inc.
(§8) (Eurofins Panlabs, MO). The results are expressed as percent inhibition of control specific binding obtained in the presence of 10 micromolar PTX-BD4-3. In this assay, values below 50% indicate no specific binding of PTX-BD4-3. The assay was negative for PTX-BD4-3 binding to all of the 55 receptors in the screen.
(§9) (also on this page, place not known: 2B 5‐HT 3 5‐HT 5a 5‐HT 6 5‐HT 7 (agonis t VPAC 1 V 1 Ca 2+ K V SK Ca Na + Cl ‐ 5‐HT Disease Models & Mechanisms: doi:10.1242/dmm.044685: Supplementary information Disease Models & Mechanisms • Supplementary information)

5-HT1A (h) = target: T2, 5-HT1A (h) (Homo sapiens, UniProt P08908); assay: Cerep ExpresSProfile radioligand binding; conditions: 10 micromolar, agonist radioligand
T2 construct: purchased Cerep (ExpresSProfile)
T2 sequence (P08908 whole entry): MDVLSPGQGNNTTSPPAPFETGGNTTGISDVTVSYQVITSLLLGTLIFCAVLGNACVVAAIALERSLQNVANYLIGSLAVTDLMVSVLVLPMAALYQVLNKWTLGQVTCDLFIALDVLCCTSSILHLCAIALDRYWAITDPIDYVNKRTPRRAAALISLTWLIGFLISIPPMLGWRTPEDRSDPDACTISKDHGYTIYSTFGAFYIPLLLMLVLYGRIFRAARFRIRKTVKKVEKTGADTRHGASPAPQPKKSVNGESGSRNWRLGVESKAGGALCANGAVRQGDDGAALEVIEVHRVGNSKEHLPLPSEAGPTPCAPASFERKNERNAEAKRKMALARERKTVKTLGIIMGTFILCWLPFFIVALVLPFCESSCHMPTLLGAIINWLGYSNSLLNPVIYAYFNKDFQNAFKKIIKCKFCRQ
Protocol: as §1, §2, §3, §4, §5, §6, §7, §8, §9

H1 (h) = target: T3, H1 (h) (Homo sapiens, UniProt P35367); assay: Cerep ExpresSProfile radioligand binding; conditions: 10 micromolar, antagonist radioligand
T3 construct: purchased Cerep (ExpresSProfile)
T3 sequence (P35367 whole entry): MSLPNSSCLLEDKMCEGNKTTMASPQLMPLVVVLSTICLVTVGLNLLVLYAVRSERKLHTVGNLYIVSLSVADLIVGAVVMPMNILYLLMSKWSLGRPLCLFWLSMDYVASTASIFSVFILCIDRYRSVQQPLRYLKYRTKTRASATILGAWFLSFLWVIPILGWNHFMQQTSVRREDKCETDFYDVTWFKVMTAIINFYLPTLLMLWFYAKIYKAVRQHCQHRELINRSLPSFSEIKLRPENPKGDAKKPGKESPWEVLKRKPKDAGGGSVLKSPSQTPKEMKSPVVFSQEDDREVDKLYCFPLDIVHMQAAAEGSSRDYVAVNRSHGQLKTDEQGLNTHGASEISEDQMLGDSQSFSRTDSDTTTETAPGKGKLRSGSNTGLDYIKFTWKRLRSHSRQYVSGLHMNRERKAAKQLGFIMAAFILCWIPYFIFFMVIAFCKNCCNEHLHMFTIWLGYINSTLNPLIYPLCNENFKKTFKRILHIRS
Protocol: as §1, §2, §3, §4, §5, §6, §7, §8, §9

5-HT2A (h) = target: T4, 5-HT2A (h) (Homo sapiens, UniProt P28223); assay: Cerep ExpresSProfile radioligand binding; conditions: 10 micromolar, antagonist radioligand
T4 construct: purchased Cerep (ExpresSProfile)
T4 sequence (P28223 whole entry): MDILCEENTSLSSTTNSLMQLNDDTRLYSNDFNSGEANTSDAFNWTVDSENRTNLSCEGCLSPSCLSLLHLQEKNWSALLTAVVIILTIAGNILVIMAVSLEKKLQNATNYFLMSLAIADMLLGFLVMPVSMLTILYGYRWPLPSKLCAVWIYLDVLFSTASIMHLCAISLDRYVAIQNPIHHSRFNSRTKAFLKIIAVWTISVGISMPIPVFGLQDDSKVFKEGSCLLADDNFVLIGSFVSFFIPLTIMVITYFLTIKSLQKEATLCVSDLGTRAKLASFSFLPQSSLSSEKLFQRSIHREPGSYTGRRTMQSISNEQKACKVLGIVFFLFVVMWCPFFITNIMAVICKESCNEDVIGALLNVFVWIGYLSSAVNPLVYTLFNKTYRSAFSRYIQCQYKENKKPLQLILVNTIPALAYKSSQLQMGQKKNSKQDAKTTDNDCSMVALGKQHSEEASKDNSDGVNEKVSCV
Protocol: as §1, §2, §3, §4, §5, §6, §7, §8, §9

BZD (central) = assay: Cerep ExpresSProfile radioligand binding; conditions: 10 micromolar; agonist radioligand
Protocol: as §1, §2, §3, §4, §5, §6, §7, §8, §9

μ (MOP) (h) = target: T5, μ (MOP) (h) (Homo sapiens, UniProt P35372); assay: Cerep ExpresSProfile radioligand binding; conditions: 10 micromolar; agonist radioligand; read-out: % Inhibition of Control Specific Binding 1st
T5 construct: purchased Cerep (ExpresSProfile)
T5 sequence (P35372 whole entry): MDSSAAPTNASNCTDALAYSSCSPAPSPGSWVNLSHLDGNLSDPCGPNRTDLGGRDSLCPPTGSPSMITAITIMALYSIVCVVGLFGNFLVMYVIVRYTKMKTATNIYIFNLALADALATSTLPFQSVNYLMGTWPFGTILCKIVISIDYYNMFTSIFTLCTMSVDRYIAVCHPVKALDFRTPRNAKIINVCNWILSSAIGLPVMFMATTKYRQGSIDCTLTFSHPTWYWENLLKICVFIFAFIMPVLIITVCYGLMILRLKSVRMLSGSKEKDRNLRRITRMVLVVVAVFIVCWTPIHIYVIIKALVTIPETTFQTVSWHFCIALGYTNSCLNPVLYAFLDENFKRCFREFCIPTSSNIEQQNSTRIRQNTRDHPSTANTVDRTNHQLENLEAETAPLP
Protocol: as §1, §2, §3, §4, §5, §6, §7, §8, §9

A1 (h) = target: T6, A1 (h) (Homo sapiens, UniProt P30542); assay: Cerep ExpresSProfile radioligand binding; conditions: 10 micromolar, agonist radioligand
T6 construct: purchased Cerep (ExpresSProfile)
T6 sequence (P30542 1-326): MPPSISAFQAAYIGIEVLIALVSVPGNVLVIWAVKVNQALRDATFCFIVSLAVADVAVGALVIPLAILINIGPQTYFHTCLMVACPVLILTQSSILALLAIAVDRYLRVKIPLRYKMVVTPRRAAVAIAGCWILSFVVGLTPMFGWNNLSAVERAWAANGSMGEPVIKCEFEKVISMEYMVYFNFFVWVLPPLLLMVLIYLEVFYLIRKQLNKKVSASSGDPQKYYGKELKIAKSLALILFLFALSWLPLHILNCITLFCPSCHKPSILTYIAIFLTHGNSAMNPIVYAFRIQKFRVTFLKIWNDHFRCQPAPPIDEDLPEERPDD
Protocol: as §1, §2, §3, §4, §5, §6, §7, §8, §9

D1 (h) = target: T7, D1 (h) (Homo sapiens, UniProt P21728); assay: Cerep ExpresSProfile radioligand binding; conditions: 10 micromolar, antagonist radioligand
T7 construct: purchased Cerep (ExpresSProfile)
T7 sequence (P21728 whole entry): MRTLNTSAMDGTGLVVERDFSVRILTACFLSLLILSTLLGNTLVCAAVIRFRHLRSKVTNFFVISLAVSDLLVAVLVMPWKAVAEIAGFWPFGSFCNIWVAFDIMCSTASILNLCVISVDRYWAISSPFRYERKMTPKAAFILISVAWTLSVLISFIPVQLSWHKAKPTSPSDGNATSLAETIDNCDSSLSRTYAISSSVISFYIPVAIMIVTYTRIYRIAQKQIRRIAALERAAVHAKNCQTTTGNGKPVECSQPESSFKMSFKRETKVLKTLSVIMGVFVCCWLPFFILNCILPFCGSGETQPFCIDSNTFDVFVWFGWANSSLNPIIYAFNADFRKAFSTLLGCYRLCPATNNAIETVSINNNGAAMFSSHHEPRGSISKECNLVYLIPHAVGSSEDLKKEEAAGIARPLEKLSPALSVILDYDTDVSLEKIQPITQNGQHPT
Protocol: as §1, §2, §3, §4, §5, §6, §7, §8, §9

GAL2 (h) = target: T8, GAL2 (h) (Homo sapiens, UniProt O43603); assay: Cerep ExpresSProfile radioligand binding; conditions: 10 micromolar; agonist radioligand; read-out: % Inhibition of Control Specific Binding 2nd
T8 construct: purchased Cerep (ExpresSProfile)
T8 sequence (O43603 whole entry): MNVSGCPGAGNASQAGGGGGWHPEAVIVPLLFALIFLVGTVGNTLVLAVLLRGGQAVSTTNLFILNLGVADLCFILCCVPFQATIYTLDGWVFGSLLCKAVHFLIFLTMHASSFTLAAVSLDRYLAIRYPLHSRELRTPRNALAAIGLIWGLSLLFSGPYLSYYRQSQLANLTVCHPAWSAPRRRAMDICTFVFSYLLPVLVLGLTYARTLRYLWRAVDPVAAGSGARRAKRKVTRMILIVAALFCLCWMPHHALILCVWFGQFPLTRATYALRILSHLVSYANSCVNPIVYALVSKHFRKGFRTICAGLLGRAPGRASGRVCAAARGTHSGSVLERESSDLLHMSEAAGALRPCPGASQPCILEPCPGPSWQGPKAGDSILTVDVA
Protocol: as §1, §2, §3, §4, §5, §6, §7, §8, §9

EP4 (h) = target: T9, EP4 (h) (Homo sapiens, UniProt P35408); assay: Cerep ExpresSProfile radioligand binding; conditions: 10 micromolar, agonist radioligand
T9 construct: purchased Cerep (ExpresSProfile)
T9 sequence (P35408 whole entry): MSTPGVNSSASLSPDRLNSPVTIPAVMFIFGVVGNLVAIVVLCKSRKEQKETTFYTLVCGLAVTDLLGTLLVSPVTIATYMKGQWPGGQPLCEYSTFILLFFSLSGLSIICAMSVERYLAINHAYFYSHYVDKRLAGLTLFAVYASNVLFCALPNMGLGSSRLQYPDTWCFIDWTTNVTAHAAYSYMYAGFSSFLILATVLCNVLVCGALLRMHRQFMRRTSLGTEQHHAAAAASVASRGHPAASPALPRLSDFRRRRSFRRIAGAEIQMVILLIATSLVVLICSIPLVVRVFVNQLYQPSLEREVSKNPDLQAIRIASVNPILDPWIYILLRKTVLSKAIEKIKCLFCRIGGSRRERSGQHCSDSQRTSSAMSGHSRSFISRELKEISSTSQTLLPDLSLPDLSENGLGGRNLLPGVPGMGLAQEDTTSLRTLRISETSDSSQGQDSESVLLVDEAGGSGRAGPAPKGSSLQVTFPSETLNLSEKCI
Protocol: as §1, §2, §3, §4, §5, §6, §7, §8, §9

B2 (h) = target: T10, B2 (h) (Homo sapiens, UniProt P30411); assay: Cerep ExpresSProfile radioligand binding; conditions: 10 micromolar, agonist radioligand
T10 construct: purchased Cerep (ExpresSProfile)
T10 sequence (P30411 1-391): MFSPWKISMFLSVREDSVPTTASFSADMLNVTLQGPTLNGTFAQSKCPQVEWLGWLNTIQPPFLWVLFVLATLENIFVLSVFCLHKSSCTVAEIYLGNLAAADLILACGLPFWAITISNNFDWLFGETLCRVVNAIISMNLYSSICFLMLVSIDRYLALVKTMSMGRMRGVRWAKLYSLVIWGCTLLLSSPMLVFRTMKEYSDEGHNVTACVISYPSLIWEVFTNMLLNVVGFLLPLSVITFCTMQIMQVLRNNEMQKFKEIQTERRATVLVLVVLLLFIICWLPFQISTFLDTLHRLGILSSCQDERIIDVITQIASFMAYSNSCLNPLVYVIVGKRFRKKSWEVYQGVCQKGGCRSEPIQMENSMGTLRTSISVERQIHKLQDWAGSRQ
Protocol: as §1, §2, §3, §4, §5, §6, §7, §8, §9

GABA (non-selective) = assay: Cerep ExpresSProfile radioligand binding; conditions: 10 micromolar; agonist radioligand
Protocol: as §1, §2, §3, §4, §5, §6, §7, §8, §9

A2A (h) = target: T11, A2A (h) (Homo sapiens, UniProt P29274); assay: Cerep ExpresSProfile radioligand binding; conditions: 10 micromolar, agonist radioligand
T11 construct: purchased Cerep (ExpresSProfile)
T11 sequence (P29274 whole entry): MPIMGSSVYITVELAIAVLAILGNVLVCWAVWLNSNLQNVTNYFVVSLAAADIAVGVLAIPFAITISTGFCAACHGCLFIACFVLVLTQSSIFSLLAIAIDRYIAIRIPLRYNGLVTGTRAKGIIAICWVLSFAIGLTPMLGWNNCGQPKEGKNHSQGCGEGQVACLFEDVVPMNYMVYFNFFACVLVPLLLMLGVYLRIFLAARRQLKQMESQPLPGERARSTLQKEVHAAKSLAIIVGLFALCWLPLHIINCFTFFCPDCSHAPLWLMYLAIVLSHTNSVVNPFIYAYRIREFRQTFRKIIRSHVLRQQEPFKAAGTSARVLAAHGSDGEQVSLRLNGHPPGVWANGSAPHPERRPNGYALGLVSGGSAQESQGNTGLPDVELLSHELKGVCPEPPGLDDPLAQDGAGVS
Protocol: as §1, §2, §3, §4, §5, §6, §7, §8, §9

[2] = read-out: % Inhibition of Control Specific Binding 1st
[3] = read-out: % Inhibition of Control Specific Binding Mean
[4] = read-out: % Inhibition of Control Specific Binding 2nd

## O=C(NCCO)c1cc(C(=O)NCCO)cc(C(=O)NCCO)c1 [LM22A-4, N,N′,N′′-tris(2-hydroxyethyl)-1,3,5-benzenetricarboxamide, reference compound]
[1]
  motor learning: improve motor learning
Het mice
  behavioral learning in a spatial memory task: improves behavioral learning

## COCCN(C)C(=O)c1cc(C(=O)N(C)CCOC)cc(C(=O)N(C)CCOC)c1 [PTX-BD4-3, benzene-1,3,5-tricarboxylic acid tris-[(2-methoxy-ethyl)-methyl-amide]]
D2S (h)
  inhibition at 10 µM: 2.4%
5-HT1A (h); [2]
  inhibition at 10 µM: 19.3%
5-HT1A (h); [3]
  inhibition at 10 µM: 5%
H1 (h); [2]
  inhibition at 10 µM: 5.8%
H1 (h); [4]
  inhibition at 10 µM: 5.2%
H1 (h); [3]
  inhibition at 10 µM: 5.5%
5-HT2A (h); [2]
  inhibition at 10 µM: 4.8%
5-HT2A (h); [3]
  inhibition at 10 µM: 0%
BZD (central)
  % Inhibition of Control Specific Binding 1st: 2.9%
μ (MOP) (h)
  inhibition at 10 µM: 6.6%
A1 (h); [2]
  inhibition at 10 µM: 8.9%
A1 (h); [4]
  inhibition at 10 µM: 5.6%
A1 (h); [3]
  inhibition at 10 µM: 7.2%
D1 (h); [2]
  inhibition at 10 µM: 10.7%
D1 (h); [4]
  inhibition at 10 µM: 1.3%
D1 (h); [3]
  inhibition at 10 µM: 6%
GAL2 (h)
  inhibition at 10 µM: 6.3%
EP4 (h); [2]
  inhibition at 10 µM: 9.5%
EP4 (h); [4]
  inhibition at 10 µM: 10.4%
EP4 (h); [3]
  inhibition at 10 µM: 9.9%
B2 (h); [2]
  inhibition at 10 µM: 8.1%
B2 (h); [4]
  inhibition at 10 µM: 0.3%
B2 (h); [3]
  inhibition at 10 µM: 4.2%
GABA (non-selective)
  % Inhibition of Control Specific Binding 1st: 16.5%
  % Inhibition of Control Specific Binding 2nd: 19.1%
  % Inhibition of Control Specific Binding Mean: 17.8%
A2A (h); [2]
  inhibition at 10 µM: 11.4%
A2A (h); [4]
  inhibition at 10 µM: 30.1%
A2A (h); [3]
  inhibition at 10 µM: 20.7%
